Experimental data: patent US9533961B2, “Molecules having certain pesticidal utilities, and intermediates, compositions, and processes related thereto” (priority 2014, dated 2017)
Where two headings read alike, the source gives them in different places.

Tests used:
Type in all cases: in vivo
[1] = test system: Beet Armyworm (Spodoptera exigua, LAPHEG) ("BAW"); assay: Bioassay on Beet Armyworm (BAW), 128-well diet tray assay; details: 168 h, read-out: BAW % Control (or Mortality) rating
Experimental: (§1) Certain molecules disclosed in this document were tested against BAW and CEW using procedures described in the following examples. In the reporting of the results, the “BAW & CL Rating Table” was used (See Table Section).
Bioassays on BAW were conducted using a 128-well diet tray assay. one to five second instar BAW larvae were placed in each well (3 mL) of the diet tray that had been previously filled with 1 mL of artificial diet to which 50 μg/cm^2 of the test compound (dissolved in 50 μL of 90:10 acetone-water mixture) had been applied (to each of eight wells) and then allowed to dry. Trays were covered with a clear self-adhesive cover and held at 25° C., 14:10 light-dark for five to seven days. Percent mortality was recorded for the larvae in each well; activity in the eight wells was then averaged. The results are indicated in the table entitled “Table ABC: Biological Results” (See Table Section).

[2] = test system: Cabbage Looper (Trichoplusia ni, TRIPNI) ("CL"); assay: Bioassay on Cabbage Looper (CL), 128-well diet tray assay; details: 168 h, read-out: CL % Control (or Mortality) rating
Experimental: as §1
Bioassays on CL were conducted using a 128-well diet tray assay. one to five second instar CL larvae were placed in each well (3 mL) of the diet tray that had been previously filled with 1 mL of artificial diet to which 50 μg/cm^2 of the test compound (dissolved in 50 μL of 90:10 acetone-water mixture) had been applied (to each of eight wells) and then allowed to dry. Trays were covered with a clear self-adhesive cover and held at 25° C., 14:10 light-dark for five to seven days. Percent mortality was recorded for the larvae in each well; activity in the eight wells was then averaged. The results are indicated in the table entitled “Table ABC: Biological Results” (See Table Section).

[3] = test system: Green Peach Aphid (Myzus persicae, MYZUPE) ("GPA"); assay: Bioassay on Green Peach Aphid (GPA), foliar spray on cabbage seedlings; details: 72 h, read-out: GPA % Control (or Mortality) rating
Experimental: Certain molecules disclosed in this document were tested against GPA using procedures described in the following example. In the reporting of the results, the “GPA Rating Table” was used (See Table Section).
Cabbage seedlings grown in 3-inch pots, with 2-3 small (3-5 cm) true leaves, were used as test substrate. The seedlings were infested with 20-50 GPA (wingless adult and nymph stages) one day prior to chemical application. Four pots with individual seedlings were used for each treatment. Test compounds (2 mg) were dissolved in 2 mL of acetone/methanol (1:1) solvent, forming stock solutions of 1000 ppm test compound. The stock solutions were diluted 5× with 0.025% Tween 20 in water to obtain the solution at 200 ppm test compound. A hand-held aspirator-type sprayer was used for spraying a solution to both sides of […] leaves until runoff. Reference plants (solvent check) were sprayed with the diluent only containing 20% by volume of acetone/methanol (1:1) solvent. Treated plants were held in a holding room for three days at approximately 25° C. and ambient relative humidity (RH) prior to grading. Evaluation was conducted by counting the number of live aphids per plant under a microscope. Percent Control was measured by using Abbott's correction formula (W. S. Abbott, “A Method of Computing the Effectiveness of an Insecticide” J. Econ. Entomol. 18 (1925), pp. 265-267) as follows. Corrected % Control=100*(X−Y)/X • where • X=No. of live aphids on solvent check plants and • Y=No. of live aphids on treated plants

[4] = test system: Yellow Fever Mosquito (Aedes aegypti, AEDSAE) ("YFM"); assay: Bioassay on Yellow Fever Mosquito (YFM), 96-well plate larval assay; details: about 1 day-old larvae, from 4000 ppm master plate, scored on mortality after 3 days
Experimental: Certain molecules disclosed in this document were tested against YFM using procedures described in the following paragraph. In the reporting of the results, the “YFM Rating Table” was used (See Table Section).
Master plates containing 400 μg of a molecule dissolved in 100 μL of dimethyl sulfoxide (DMSO) (equivalent to a 4000 ppm solution) are used. A master plate of assembled molecules contains 15 μL per well. To this plate, 135 μL of a 90:10 water:acetone mixture is added to each well. A robot (Biomek® NXP Laboratory Automation Workstation) is programmed to dispense 15 μL aspirations from the master plate into an empty 96-well shallow plate (“daughter” plate). There are 6 reps (“daughter” plates) created per master. The created daughter plates are then immediately infested with YFM larvae.
The day before plates are to be treated, mosquito eggs are placed in Millipore water containing liver powder to begin hatching (4 g. into 400 mL). After the daughter plates are created using the robot, they are infested with 220 μL of the liver powder/larval mosquito mixture (about 1 day-old larvae). After plates are infested with mosquito larvae, a non-evaporative lid is used to cover the plate to reduce drying. Plates are held at room temperature for 3 days prior to grading. After 3 days, each well is observed and scored based on mortality.

[5] = 50 μg/cm^2 on artificial diet, second instar larvae, five to seven days, 25° C., average of eight wells
[6] = 200 ppm foliar spray on cabbage seedlings, three days, Abbott corrected % control

Row | SMILES | mortality at 50 µg/cm2 [1, 5] [%] | mortality at 50 µg/cm2 [2] [%] | mortality at 200 ppm [3, 6] [%] | mortality at 50 µg/cm2 [1] [%] | mortality at 200 ppm ([3]; foliar) [%] | YFM % Control (or Mortality) rating [4]
1 | Cc1cccc(C)c1Nc1ccccc1C(=O)Nc1ccc(-c2ncn(-c3ccc(OC(F)(F)F)cc3)n2)cc1 [F1, 2-((2,6-dimethylphenyl)amino)-N-(4-(1-(4-(trifluoromethoxy)phenyl)-1H-1,2,4-triazol-3-yl)phenyl)benzamide] | 0 | 0 | 0 to 80 |  |  | 
2 | Cc1cccc(C)c1Nc1ccccc1C(=O)Nc1ccc(-c2ncn(-c3ccc(C(F)(F)F)cc3)n2)cc1 [F2, 2-((2,6-Dimethylphenyl)amino)-N-(4-(1-(4-(trifluoromethyl)phenyl)-1H-1,2,4-triazol-3-yl)phenyl)benzamide] |  | 0 |  | 0 | 0 to 80 | 
3 | O=C(Nc1ccc(-c2ncn(-c3ccc(OC(F)(F)F)cc3)n2)cc1)c1ccccc1Nc1ccccc1 [F7, 2-(phenylamino)-N-(4-(1-(4-(trifluoromethoxy)phenyl)-1H-1,2,4-triazol-3-yl)phenyl)benzamide] | 50 to 100 | 50 to 100 | 0 to 80 |  |  | A (80-100)
4 | COc1ccc(C(=O)Nc2ccc(-c3ncn(-c4ccc(OC(F)(F)F)cc4)n3)cc2)cc1 [F26, 4-Methoxy-N-(4-(1-(4-(trifluoromethoxy)phenyl)-1H-1,2,4-triazol-3-yl)phenyl)benzamide] | 50 to 100 | 50 to 100 |  |  |  | D (No activity noticed in this bioassay)
5 | O=C(NCc1ccc(-c2ncn(-c3ccc(OC(F)(F)F)cc3)n2)cc1)c1ccccc1-c1ccccc1 [F27, N-(4-(1-(4-(Trifluoromethoxy)phenyl)-1H-1,2,4-triazol-3-yl)benzyl)biphenyl-2-carboxamide] | 0 to 50 | 50 to 100 |  |  |  | B (More than 0 - Less than 80)
6 | CC(C)c1cccc(C(=O)NCc2ccc(-c3ncn(-c4ccc(OC(F)(F)F)cc4)n3)cc2)c1 [F28, 3-Isopropyl-N-(4-(1-(4-(trifluoromethoxy)phenyl)-1H-1,2,4-triazol-3-yl)benzyl)benzamide] | 50 to 100 | 0 |  |  |  | D (No activity noticed in this bioassay)
7 | Cc1ccc(C(=O)NCc2ccc(-c3ncn(-c4ccc(OC(F)(F)F)cc4)n3)cc2)c(C)c1 [F29, 2,4-Dimethyl-N-(4-(1-(4-(trifluoromethoxy)phenyl)-1H-1,2,4-triazol-3-yl)benzyl)benzamide] | 0 | 0 |  |  |  | D (No activity noticed in this bioassay)
8 | Cc1ccccc1-c1ccccc1C(=O)NCc1ccc(-c2ncn(-c3ccc(OC(F)(F)F)cc3)n2)cc1 [F30, 2′-Methyl-N-(4-(1-(4-(trifluoromethoxy)phenyl)-1H-1,2,4-triazol-3-yl)benzyl)biphenyl-2-carboxamide] | 0 to 50 | 50 to 100 |  |  |  | B (More than 0 - Less than 80)
9 | CC(C)c1ccccc1C(=O)NCc1ccc(-c2ncn(-c3ccc(OC(F)(F)F)cc3)n2)cc1 [F31, 2-Isopropyl-N-(4-(1-(4-(trifluoromethoxy)phenyl)-1H-1,2,4-triazol-3-yl)benzyl)benzamide] | 0 | 0 |  |  |  | D (No activity noticed in this bioassay)
10 | O=C(NCc1ccc(-c2ncn(-c3ccc(OC(F)(F)F)cc3)n2)cc1)c1ccccc1 [F32, N-(4-(1-(4-(trifluoromethoxy)phenyl)-1H-1,2,4-triazol-3-yl)benzyl)benzamide] | 0 | 0 |  |  |  | D (No activity noticed in this bioassay)
11 | Cc1ccc(-c2ccccc2C(=O)NCc2ccc(-c3ncn(-c4ccc(OC(F)(F)F)cc4)n3)cc2)c(C)c1 [F33, 2′,4′-Dimethyl-N-(4-(1-(4-(trifluoromethoxy)phenyl)-1H-1,2,4-triazol-3-yl)benzyl)biphenyl-2-carboxamide] | 0 to 50 | 50 to 100 |  |  |  | A (80-100)
12 | Cc1ccc(Cl)cc1-c1ccccc1C(=O)NCc1ccc(-c2ncn(-c3ccc(OC(F)(F)F)cc3)n2)cc1 [F34, 5′-Chloro-2′-methyl-N-(4-(1-(4-(trifluoromethoxy)phenyl)-1H-1,2,4-triazol-3-yl)benzyl)biphenyl-2-carboxamide] | 0 | 50 to 100 |  |  |  | D (No activity noticed in this bioassay)
13 | Cc1ccc(C)c(-c2ccccc2C(=O)NCc2ccc(-c3ncn(-c4ccc(OC(F)(F)F)cc4)n3)cc2)c1 [F35, 2′,5′-Dimethyl-N-(4-(1-(4-(trifluoromethoxy)phenyl)-1H-1,2,4-triazol-3-yl)benzyl)biphenyl-2-carboxamide] | 0 to 50 | 50 to 100 |  |  |  | B (More than 0 - Less than 80)
14 | Cc1cccc(-c2ccccc2C(=O)NCc2ccc(-c3ncn(-c4ccc(OC(F)(F)F)cc4)n3)cc2)c1C [F36, 2′,3′-Dimethyl-N-(4-(1-(4-(trifluoromethoxy)phenyl)-1H-1,2,4-triazol-3-yl)benzyl)biphenyl-2-carboxamide] | 0 to 50 | 50 to 100 |  |  |  | A (80-100)
15 | Cc1cccc(C)c1-c1ccccc1C(=O)NCc1ccc(-c2ncn(-c3ccc(OC(F)(F)F)cc3)n2)cc1 [F37, 2′,6′-Dimethyl-N-(4-(1-(4-(trifluoromethoxy)phenyl)-1H-1,2,4-triazol-3-yl)benzyl)biphenyl-2-carboxamide] | 0 to 50 | 50 to 100 |  |  |  | A (80-100)
16 | COc1ccc(-c2ccccc2C(=O)NCc2ccc(-c3ncn(-c4ccc(OC(F)(F)F)cc4)n3)cc2)c(C)c1 [F38, 4′-Methoxy-2′-methyl-N-(4-(1-(4-(trifluoromethoxy)phenyl)-1H-1,2,4-triazol-3-yl)benzyl)biphenyl-2-carboxamide] | 0 | 0 |  |  |  | D (No activity noticed in this bioassay)
17 | Cc1ccc(C(C)C)c(C(=O)NCc2ccc(-c3ncn(-c4ccc(OC(F)(F)F)cc4)n3)cc2)c1 [F39, 2-Isopropyl-5-methyl-N-(4-(1-(4-(trifluoromethoxy)phenyl)-1H-1,2,4-triazol-3-yl)benzyl)benzamide] | 0 | 0 |  |  |  | D (No activity noticed in this bioassay)
18 | Cc1cc(F)ccc1-c1ccccc1C(=O)NCc1ccc(-c2ncn(-c3ccc(OC(F)(F)F)cc3)n2)cc1 [F40, 4′-Fluoro-2′-methyl-N-(4-(1-(4-(trifluoromethoxy)phenyl)-1H-1,2,4-triazol-3-yl)benzyl)biphenyl-2-carboxamide] | 50 to 100 | 50 to 100 |  |  |  | D (No activity noticed in this bioassay)
